# Assay results: patent US7691582B2, “Methods of secretory vimentin detection and modulation” (The Regents of the University of Michigan, priority 2002, dated 2010)
# Entries after “also recorded” stand apart in the source; their conditions may differ.
# Legend:
# Format in all cases: cell-based, human
# [1] = test system: vimentin proteolysis in MDM; experiment: Vimentin proteolytic products in MDM, Western blot with V9; conditions: MDM treated with E-64 [100 µM], 12 h; FIG. 3e
# Experimental: Cells were maintained for 12-48 h in serum-free medium. When applicable, during the incubation in serum-free media cells were treated for 12 h with 10-500 ng ml^−1 IL-10, 0.5-5 ng ml^−1 TNF-α, 4 μg ml^−1 tunicamycin, E-64 [100 µM] (Sigma), or 2 or 4 μg ml^−1 monensin (Pharmingen). Alternatively, cells were treated for 2 h with GÖ 6983 [250 nM], SB 203580 [100 μM], or OA [100 nM] (Calbiochem) followed by 12 h incubation in serum-free media or treatment with TNF-α. The viability of the cells up to 48 h was almost 100% as measured by MTT assay (Boehringer Mannheim, Indianapolis, Ind.) and LDH release as previously described^12. Supernatants were collected and centrifuged for 20 min at 1500 RPM to remove cell debris and concentrated by a centrifugal filter device (Millipore) in the presence of a protease inhibitor cocktail (Boehringer Mannheim, Indianapolis, Ind.) and were either used immediately or stored at −70° C. Cells were washed and lysed with 1 ml lysis buffer (50 mM Tris pH 7.5, 150 mM NaCl, 1% NP-40 0.1% SDS, 0.5% Na-Deoxycholate and complete EDTA-free protease inhibitor cocktail) was added to the cells and allowed to incubate on ice for 15 min. […] Chemiluminescent signal was detected using the Super Signal West Pico system (Pierce Chemical Co, Rockford, Ill.).
# [2] = test system: vimentin in 12 day MDM; experiment: In vivo phosphorylation of vimentin, [32P] orthophosphate incorporation in 12 day MDM; conditions: GÖ 6983 250 nM or OA 100 nM during [32P] labeling, Western blot of same membrane, FIG. 4e
# Experimental: 12 day MDM (1.5×10^6) were rinsed three times with phosphate-free RPMI medium (Gibco-BRL, Grand Island, N.Y.). Cells were incubated in 5 ml of phosphate-free RPMI media and allowed to equilibrate at 37 ° C. in a 6 well plate for 2 h. The media was replaced with 1 ml/well of phosphate-free RPMI media with 10% dialysed human serum and 0.166 mCi of [^32P] orthophosphoric acid (Amersham Pharmacia Biotech) for 6 h of incubation. In addition to the control, some wells were treated with GÖ 6983 [250 nM] or OA [100 nM]. Following treatment, medium was removed and replaced by serum free medium for 18 h. Supernatant and cells were prepared for immunoprecipitation as described above (Metabolic Labeling section). Phosphorylated vimentin protein was immunoprecipitated as above, and the samples were separated by 10% SDS-PAGE electrophoresis under reducing conditions. Proteins were transferred to nitrocellulose and subjected to autoradiography for 4 h then immunoblotted with mouse monoclonal anti-vimentin antibody (Research Genetics, Inc.), stripped and re-probed with goat polyclonal anti-vimentin antibody (Chemicon International, Calif.), followed by horseradish peroxidase-conjugated goat anti-mouse or rabbit anti-goat secondary antibodies. Chemiluminescent signal was detected using the Super Signal West Pico system (Pierce Chemical Co, Rockford, Ill.).
# [3] = test system: secretion of vimentin from MDM; experiment: Vimentin secretion by MDM, Western blot of supernatants
# [4] = test system: secretion of vimentin from MDM; experiment: as above; conditions: for vimentin secretion (vimentin in the supernatant): MDM treated 2 h with inhibitor (GÖ 6983 250 nM; SB 203580 100 μM), FIGS. 3c, 4a, 4b; for secretion of vimentin from the mature MDM: eleven day MDM, 40% human serum, monensin 2 or 4 μg ml−1 or tunicamycin 4 μg ml−1, 12 h, FIG. 2h
# Experimental: Monocyte-derived macrophages (MDMs) were prepared as previously described^40. Briefly, heparinized venous blood was collected upon consent from healthy volunteers, and peripheral blood mononuclear cells (PBMC) were separated by Ficoll-Hypaque (Pharmacia Biotech AB, Uppsala, Sweden) density gradient centrifugation. MDM were purified by adherence to plastic for 2 hat […] at a concentration of 5×10^5 ml^−1. Adherent cells were consistently >90% monocytes as described^40. Adherence-purified human monocytes were cultured in X-vivo medium supplemented with 40% human AB serum (Bio-Whittaker, Walkersville, Md.) and 100 units of penicillin and 50 units of streptomycin per ml^12.
# Cells were maintained for 12-48 h in serum-free medium. When applicable, during the incubation in serum-free media cells were treated for 12 h with 10-500 ng ml^−1 IL-10, 0.5-5 ng ml^−1 TNF-α, 4 μg ml^−1 tunicamycin, E-64 [100 µM] (Sigma), or 2 or 4 μg ml^−1 monensin (Pharmingen). Alternatively, cells were treated for 2 h with GÖ 6983 [250 nM], SB 203580 [100 μM], or OA [100 nM] (Calbiochem) followed by 12 h incubation in serum-free media or treatment with TNF-α. The viability of the cells up to 48 h was almost 100% as measured by MTT assay (Boehringer Mannheim, Indianapolis, Ind.) and LDH release as previously described^12. Supernatants were collected and centrifuged for 20 min at 1500 RPM to remove cell debris and concentrated by a centrifugal filter device (Millipore) in the presence of a protease inhibitor cocktail (Boehringer Mannheim, Indianapolis, Ind.) and were either used immediately or stored at −70° C. Cells were washed and lysed with 1 ml lysis buffer (50 mM Tris pH 7.5, 150 mM NaCl, 1% NP-40 0.1% SDS, 0.5% Na-Deoxycholate and complete EDTA-free protease inhibitor cocktail) was added to the cells and allowed to incubate on ice for 15 min. The lysate was centrifuged at 10,000 rpm for 20 min at 4° C., the supernatant recovered, and the protein extract was either used immediately or stored at −70° C. Equal amounts of protein (20 μg) were loaded under reducing conditions and separated by 10% SDS PAGE. The gel was transferred to nitrocellulose and immunoblotted with mouse monoclonal anti-vimentin antibody V9 (Research Genetics, Inc), goat anti-vimentin antibody (Chemicon International, Calif.) or goat anti-actin (Santa-Cruz Biotechnology, Inc) followed by a horseradish peroxidase-conjugated appropriate secondary antibody. Chemiluminescent signal was detected using the Super Signal West Pico system (Pierce Chemical Co, Rockford, Ill.).
# [5] = test system: phosphorylated vimentin in MDM; experiment: Immunoprecipitation with anti-phospho-(Ser/Thr) antibody, vimentin detected by V9; conditions: 7 day MDM in 10% serum; okadaic acid 100 nM or GÖ 6983 250 nM, 2 h; FIG. 4d
molecule,measurement,setting,value
CC(C)C[C@H](NC(=O)[C@H]1O[C@@H]1C(=O)O)C(=O)NCCCCN=C(N)N [E-64],"vimentin proteolytic products, intracellularly and in the supernatant",[1],marked decrease
COc1ccc2c(c1)c(C1=C(c3c[nH]c4ccccc34)C(=O)NC1=O)cn2CCCN(C)C [GÖ6983],secretion of vimentin (62 kD and 52 kD forms),[2],eliminated essentially all the secretion of vimentin
same,OA-enhanced vimentin secretion,"[3]; 7 day MDM in 10% serum, preincubated with GÖ 6983 250 nM 2 h prior to OA 100 nM, FIG. 4b",partially decreased
same,secretion of vimentin in the presence of TNF-α,"[4]; 40% serum treated MDM, GÖ6983 followed by TNF-α",not blocked
same,vimentin secretion (vimentin in the supernatant),[4],almost completely blocked; also recorded: significantly blocked
same,amount of actin detected in the supernatants,"[4]; eleven day MDM with or without GÖ6983, FIG. 3c",does not modify the amount of actin
same,amount of phosphorylated vimentin in cells (cytoplasm) and supernatant,[5],markedly decreased the amount of phosphorylated vimentin in the cytoplasm as well as in the supernatant
"CC[C@@]1([C@@H]2O[C@@H]([C@H]3O[C@@](O)(CO)[C@H](C)C[C@@H]3C)C[C@@H]2C)CC[C@H]([C@]2(C)CC[C@]3(C[C@H](O)[C@@H](C)[C@@H]([C@@H](C)[C@@H](OC)[C@H](C)C(=O)O)O3)O2)O1 [Monensin, monensin]",secretion of vimentin from the mature MDM,[4],eliminate secretion of vimentin
"C=C1[C@@H](O)[C@@H]2O[C@]3(CC[C@H](/C=C/[C@@H](C)[C@@H]4CC(C)=C[C@@]5(O[C@H](C[C@@](C)(O)C(=O)O)CC[C@H]5O)O4)O3)CC[C@H]2O[C@@H]1[C@@H](O)C[C@H](C)[C@H]1O[C@@]2(CCCCO2)CC[C@H]1C [OA, okadaic acid]",secretion of vimentin (62 kD and 52 kD forms),[2],preferentially enhances secretion of the 52 kD form
same,increase in vimentin secretion,"[3]; 7 day MDM in 10% serum, okadaic acid 100 nM, 2 h, FIG. 4b",> 10 fold
same,extracellular vimentin levels,"[4]; 10 day MDM in 40% serum, okadaic acid 100 nM, 2 h, FIG. 4a",led to an increase in extracellular vimentin levels
same,amount of phosphorylated vimentin in cells (cytoplasm) and supernatant,[5],increase in phosphorylated vimentin in the supernatants but not in the cells
C[S+]([O-])c1ccc(-c2nc(-c3ccncc3)c(-c3ccc(F)cc3)[nH]2)cc1 (stereo not shown) [SB203580],vimentin secretion (vimentin in the supernatant),[4],did not block secretion
TNF-α,induction of secretion of vimentin,"[3]; 1 day human monocytes in 10% human serum, TNF-α 0.5, 1 or 5 ng ml−1, 12 h, densitometry, FIGS. 5b, 5c",up to 120 fold
tunicamycin,secretion of vimentin from the mature MDM,[4],eliminate secretion of vimentin
"IL-10: anti-inflammatory cytokine, a potent inhibitor of activated macrophages (protein, UniProt P22301 19-178, looked up) Interleukin-10: SPGQGTQSENSCTHFPGNLPNMLRDLRDAFSRVKTFFQMKDQLDNLLLKESLLEDFKGYLGCQALSEMIQFYLEEVMPQAENQDPDIKAHVNSLGENLKTLRLRLRRCHRFLPCENKSKAVEQVKNAFNKLQEKGIYKAMSEFDIFINYIEAYMTMKIRN",secretion of vimentin,"[4]; MDM in 40% human serum, IL-10 10, 50 or 500 ng ml−1, 12 h, FIG. 5a",markedly decreased the secretion of vimentin
